Test results published in the NIST ThermoML archive (doi:10.1021/je700705d).
± gives the expanded uncertainty stated by the source.

Key:
[1] = Liquid; Ebulliometric method (Recirculating still)
[2] = refractive index (Na D-line) (dimensionless); details: 293.15 K; 101.33 kPa; Liquid; Standard Abbe refractometry

| Structure (SMILES) | Normal boiling temperature [1] | refractive index [2] |
| --- | --- | --- |
| CC(O)C(C)O (centres undefined) [2,3-butanediol] | 181.06 ± 0.2 °C | 1.4375 ± 0.0007 |
| CCCCOC(C)=O [butyl ethanoate] | 125.96 ± 0.2 °C | 1.3941 ± 0.0007 |
